From publication PMC6934184, “Selective DNA-PKcs inhibition extends the therapeutic index of localized radiotherapy and chemotherapy” (The Journal of Clinical Investigation, 2019)

Biological target: T1, ULK1 (Homo sapiens, UniProt O75385)
T1 construct: purchased Thermo Fisher Scientific (Life Technologies) SelectScreen
Assay: SelectScreen LanthaScreen
Format: binding
Conditions: 1 µM
Method in brief: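 NU5455 was profiled across the SelectScreen Broad panel of kinase activity and binding assays. Z'LYTE reactions such as CSF1R ran at apparent Km ATP, while the Adapta CAMK1 assay used ATP listed as 10. Values are given as percent.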

T1 sequence (O75385 whole entry): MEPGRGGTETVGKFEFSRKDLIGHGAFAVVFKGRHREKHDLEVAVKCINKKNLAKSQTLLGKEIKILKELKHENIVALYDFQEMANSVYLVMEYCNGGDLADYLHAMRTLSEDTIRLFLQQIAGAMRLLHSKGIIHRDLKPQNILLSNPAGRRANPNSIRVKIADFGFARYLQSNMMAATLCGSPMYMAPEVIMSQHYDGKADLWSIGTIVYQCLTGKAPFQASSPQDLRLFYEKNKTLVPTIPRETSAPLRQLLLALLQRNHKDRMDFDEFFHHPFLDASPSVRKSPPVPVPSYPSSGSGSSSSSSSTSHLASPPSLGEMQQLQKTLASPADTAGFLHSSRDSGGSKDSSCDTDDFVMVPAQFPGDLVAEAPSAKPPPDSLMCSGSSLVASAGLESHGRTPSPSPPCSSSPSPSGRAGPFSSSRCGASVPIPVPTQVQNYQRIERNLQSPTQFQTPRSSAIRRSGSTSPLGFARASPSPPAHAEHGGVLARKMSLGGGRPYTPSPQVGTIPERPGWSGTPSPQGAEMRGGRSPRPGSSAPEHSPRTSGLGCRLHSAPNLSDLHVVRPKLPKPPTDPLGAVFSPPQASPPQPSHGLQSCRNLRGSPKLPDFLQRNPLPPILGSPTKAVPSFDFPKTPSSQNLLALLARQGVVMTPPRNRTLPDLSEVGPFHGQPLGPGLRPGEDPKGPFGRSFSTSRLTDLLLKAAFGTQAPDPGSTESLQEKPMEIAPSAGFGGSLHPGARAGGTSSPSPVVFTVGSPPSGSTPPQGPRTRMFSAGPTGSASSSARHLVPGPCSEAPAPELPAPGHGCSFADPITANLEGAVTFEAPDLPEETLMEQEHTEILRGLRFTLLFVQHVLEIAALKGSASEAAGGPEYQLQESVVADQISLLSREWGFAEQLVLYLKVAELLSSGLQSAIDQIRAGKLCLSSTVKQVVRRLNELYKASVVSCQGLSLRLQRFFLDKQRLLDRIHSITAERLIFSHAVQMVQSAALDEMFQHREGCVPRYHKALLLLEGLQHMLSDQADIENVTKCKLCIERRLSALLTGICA

## CN(C(=O)CN1CCOCC1)c1ccc2sc3c(-c4cccc5c(=O)cc(N6CC7CCC(C6)O7)oc45)cccc3c2c1 [NU5455]
  % displacement: 1.8%
